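GI50: concentration for 50% inhibition of growth. TGI: total growth inhibition.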
Columns and labels:
Experiment in all cases: NCI anticancer screen, dose series, 384-well format
[1] = tested on: A498 renal
[2] = tested on: HCT-116 colon
[3] = tested on: HCT-15 colon
[4] = tested on: HS 578T breast
[5] = tested on: KM12 colon
[6] = tested on: MDA-MB-231 breast
[7] = tested on: MDA-MB-435 melanoma
[8] = tested on: NCI-H322M lung
[9] = tested on: SK-OV-3 ovarian
[10] = tested on: SN12C renal
[11] = tested on: SR leukemia
[12] = tested on: SW-620 colon
[13] = tested on: T-47D breast

SMILES	GI50 [1] [µM]	TGI [1] [µM]	GI50 [2] [µM]	TGI [2] [µM]	GI50 [3] [µM]	TGI [3] [µM]	GI50 [4] [µM]	TGI [4] [µM]	GI50 [5] [µM]	TGI [5] [µM]	GI50 [6] [µM]	TGI [6] [µM]	GI50 [7] [µM]	TGI [7] [µM]	GI50 [8] [µM]	TGI [8] [µM]	GI50 [9] [µM]	TGI [9] [µM]	GI50 [10] [µM]	TGI [10] [µM]	also measured
C[C@@H](Nc1nc(N[C@H](C)C(F)(F)F)nc(-c2cccc(Cl)n2)n1)C(F)(F)F	32.9	> 72.4	89.3	> 100	> 100	> 100	21.1	63.2	> 91.7	> 100	27.9	> 83.3	> 77.9	> 100	> 100	> 100	> 100	> 100	> 62.6	> 100	GI50 [11]: > 77.3 µM; TGI [11]: > 100 µM; GI50 [12]: > 49.5 µM; TGI [12]: > 70.6 µM; GI50 [13]: > 84.3 µM; TGI [13]: > 100 µM
Cc1cc(F)c(C(=O)Nc2cccc(-c3nncn3C(C)C)n2)cc1-n1cnc(C2CC2)c1	10.1	> 76.6	17.6	71.1	17.6	45.3	8.3	35.2	15.6	30.6	15.3	> 85.9	13.2	30	18.8	44.6	17.4	38.6	19.4	> 93.6	GI50 [11]: 3.62 µM; TGI [11]: 11.2 µM; GI50 [12]: 13.9 µM; TGI [12]: 32.3 µM; GI50 [13]: 3.42 µM; TGI [13]: 14.6 µM

— PubChem BioAssay (NCI)
